Reference: US20220168304A1, “METHODS FOR TREATING CYSTIC FIBROSIS” (CHILDREN'S HOSPITAL MEDICAL CENTER, priority 2017, published 2022)

Assays:
human duodenal organoids = experiment: Fluid secretion by forskolin-induced swelling (FIS) of human duodenal organoids; assay type: cell-based; details: FIG. 3; 0.1 micromolar saracatinib; forskolin 10 μM, 120 min; FSK vs no FSK significant, p value of 0.01
Description: (§1) Mouse intestinal organoids were cultured as described previously (DALTON et al., “New model of cystic fibrosis transmembrane conductance regulator proposes active channel-lik ? Inf Model (2012) Vol. 52, pp. 1842-1853). Human duodenal crypt isolation and enteroid expansion was performed as described previously (<<https://www.jove.com/video/52483/establishment-human-epithelial-enteroids-colonoids-from-whole-tissue>>) with some adaptations. Briefly, fresh biopsy is rinsed in ice-cold Dulbecco's Phosphate buffered saline without Ca^2+ and Mg^2+ (DPBS, Gibco), mounted and immersed in DPBS in a silica gel coated petri-dish using minutien pins with the mucosal side facing up.
Mucosa is gently scraped with curved forceps to remove villi and debris followed by 3-4 washes with DPBS. Crypts were dissociated using 2 mM EDTA (30 min, 4° C. with gentle shaking) followed by gentle scraping of the mucosa. The crypt suspension was filtered through a 150 μm nylon mesh twice and pelleted at 50×g, 4° C. The crypt pellet was resuspended in matrigel matrix (200 to 500 crypts/50 μl matrigel per well of a 24 well plate). […]
Fluid Secretion by forskolin-induced swelling (FIS) of human duodenal organoids (A) representative images (bar=20 micrometers) and (B) quantitation of fluid secretion.

[1] = test system: mouse intestinal organoids; experiment: Fluid secretion by forskolin-induced swelling (FIS) of mouse intestinal organoids; assay type: cell-based; details: FIG. 4; 0.1 micromolar saracatinib; forskolin 10 μM, 30 min; FSK vs no FSK significant, p value of 0.01
Description: as §1
Isolation of intestinal spheres and measurement of fluid secretion were performed as described previously (MOON et al., “Compartmentalized accumulation of cAMP near complexes of multidrug resistance protein 4 (MRP4) and cystic fibrosis transmembrane conductance regulator (CFTR) contributes to drug-induced diarrhea.” J Biol Chem (2015) Vol. 290, pp. 11246-11257). Day 1-4 intestinal organoids were treated with 0.1-10 μM of the test compound for 24 h before stimulation of CFTR function using forskolin (10 μM). […]
Fluid Secretion by forskolin-induced swelling (FIS) of mouse intestinal organoids (A) representative images (bar=20 micrometers) and (B) quantitation of fluid secretion.

In the case of `CN1CCN(CCOc2cc(OC3CCOCC3)c3c(Nc4c(Cl)ccc5c4OCO5)ncnc3c2)CC1` [saracatinib, N-(5-chloro-1,3-benzodioxol-4-yl)-7-[2-(4-methyl-1-piperazinyl)ethoxy]-5-[(tetrahydro-2H-pyran-4-yl)oxy]-4-quinazolinamine], the “Fluid secretion (forskolin-induced swelling, FIS)” value (human duodenal organoids) is reported as “fluid secretion occurs when saracatinib is added” and the “Fluid secretion (forskolin-induced swelling, FIS)” value [1] is reported as “fluid secretion occurs when saracatinib is added”.
